# Several values for one entry are separate records, joined by “and”; a condition that tells them apart may be missing. Equal entries are not always repeated.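 Each compound was tested at five concentrations against cells in 96-well plates for 48 hours. Here, GI50 denotes the concentration required for 50% inhibition of growth. TGI: concentration producing complete growth inhibition.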
# Assays:
# Assay in all cases: inhibition of tumour cell growth, NCI panel, 48 h
# HS 578T breast = test system: HS 578T breast
# KM12 colon = test system: KM12 colon
# T-47D breast = test system: T-47D breast
# SK-MEL-2 melanoma = test system: SK-MEL-2 melanoma
# OVCAR-5 ovarian = test system: OVCAR-5 ovarian
# U251 CNS = test system: U251 CNS
# M14 melanoma = test system: M14 melanoma
# SK-MEL-5 melanoma = test system: SK-MEL-5 melanoma
# SR leukemia = test system: SR leukemia
# UO-31 renal = test system: UO-31 renal
SMILES,TGI (HS 578T breast),TGI (KM12 colon),TGI (T-47D breast),TGI (SK-MEL-2 melanoma),TGI (OVCAR-5 ovarian),TGI (U251 CNS),TGI (M14 melanoma),TGI (SK-MEL-5 melanoma),TGI (SR leukemia),TGI (UO-31 renal),GI50 (T-47D breast),GI50 (U251 CNS),GI50 (M14 melanoma),GI50 (SR leukemia),GI50 (HS 578T breast),GI50 (SK-MEL-2 melanoma),GI50 (OVCAR-5 ovarian),GI50 (SK-MEL-5 melanoma),GI50 (UO-31 renal)
C=CCSC1=N/C(=C\c2ccc(Cl)cc2)C(=O)N1CC=C,> 100 µM,97.7 µM,63.5 µM,76 µM,> 100 µM,64.6 µM,> 100 µM,31 µM,48.4 µM,> 100 µM,,,,,,,,,
NC(=O)CNC(=O)[C@@H]1CC(OCCC(=O)O)CN1C(=O)C1CCCN1C(=O)OCc1ccccc1 (stereo partly drawn),> 100 µM,> 100 µM,> 100 µM,> 100 µM,> 100 µM,> 100 µM,> 100 µM,> 100 µM,> 100 µM,> 100 µM,,,,,,,,,
CN(C)CCNc1ccc2c(=O)n(CCN(C)C)c(=O)n3c4ccc(O)cc4c(=O)c1c23,0.961 µM,2.15 µM,0.717 µM,0.602 µM,2.34 µM,0.439 µM,1.86 µM,0.211 µM,< 0.01 µM,0.282 µM,,,,,,,,,
CC(=O)c1c(-c2cccc3ccccc23)c(C#N)c(=S)n(C2OC(CO)C(O)C(O)C2O)c1C (stereo not drawn),> 100 µM,> 100 µM,> 100 µM,> 100 µM,> 100 µM,> 100 µM,> 100 µM,> 100 µM,> 100 µM,> 100 µM,> 100 µM and 27.3 µM,> 100 µM and 48.9 µM,> 100 µM and 42.6 µM,> 100 µM and 33.6 µM,,,,,
O=C1c2cccc([N+](=O)[O-])c2C(=O)N1Cc1ccccc1,> 100 µM,> 100 µM,> 100 µM,> 100 µM,> 100 µM,> 100 µM,> 100 µM,> 100 µM,> 100 µM,> 100 µM,,,,,,,,,
O=[N+]([O-])c1ccccc1OCCOc1ccccc1[N+](=O)[O-],> 100 µM,> 100 µM,> 100 µM,> 100 µM,> 100 µM,> 100 µM,> 100 µM,> 100 µM,> 100 µM,> 100 µM,,,,,,,,,
O=C(Nc1ccccc1)N(C1=NCC(CI)S1)c1ccc(F)c(F)c1 (stereo not drawn),> 100 µM,> 100 µM,> 100 µM,60.5 µM,> 100 µM,> 100 µM,,37.2 µM,> 100 µM,> 100 µM,,,,,,,,,
CC1CC[C@@]2(OC1)OC1C[C@H]3[C@@H]4CC=C5CC(OC6OC(CO)C(OC7OC(CO)C(O)C(OC8OCC(O)C(O)C8O)C7OC7OC(CO)C(OC8OC(C)C(OC9OC(C)C(O)C(O)C9O)C(O)C8O)C(O)C7O)C(O)C6O)CCC5(C)[C@H]4CCC3(C)C1[C@@H]2C (stereo partly drawn),17.8 µM,17.7 µM,20.2 µM,13.5 µM,14.3 µM,16.3 µM,10.1 µM,15.8 µM,50 µM,,,,,,,,,,
S=C1c2ccc(Cl)cc2-n2cnnc2C2CSCN12 (stereo not drawn),> 100 µM,> 100 µM,> 100 µM,> 100 µM,> 100 µM,> 100 µM,> 100 µM,> 100 µM,> 100 µM,> 100 µM,,,,,,,,,
COc1ccc(N2C(=O)C3c4[nH]c5ccc(OCc6ccccc6)cc5c4C4CCC(c5ccccc5)CC4C3C2=O)cc1 (stereo not drawn),25.8 µM,> 85.7 µM,77.3 µM,68 µM,> 95.8 µM,11.2 µM,> 100 µM,> 93.7 µM,7.14 µM,> 96.9 µM,,,,,,,,,
CC(=O)Nc1ccc2c(C)c3c(nc2n1)[nH]c1ccccc13,70 µM,47.6 µM,55.5 µM,55.5 µM,> 100 µM,> 100 µM,82.2 µM,28 µM,64.9 µM,> 100 µM,,,,,,,,,
c1ccc(/C(=N/Nc2nc3ccccc3s2)C2CCCCC2)nc1,50 µM,29.6 µM,15.5 µM,32.3 µM,14.4 µM,35.9 µM,27.7 µM,18.9 µM,16.8 µM,15.4 µM,,,,,,,,,
O=C(O)CN(CC(=O)O)C1CCCCC1N1CC(=O)OC(=O)C1 (stereo not drawn),> 100 µM,> 100 µM,> 100 µM,> 100 µM,> 100 µM,> 100 µM,> 100 µM,> 100 µM,> 100 µM,> 100 µM,,,,,,,,,
O=C(O)CCc1nc2c(n1-c1ccccc1)C(=O)c1ccccc1C2=O,> 100 µM,> 100 µM,> 100 µM,> 100 µM,> 100 µM,> 100 µM,> 100 µM,> 100 µM,> 100 µM,> 100 µM,,,,,,,,,
Cc1ccc(Nc2nc3[nH]ccc3c(=O)[nH]2)cc1,> 100 µM,> 100 µM,> 100 µM,> 100 µM,> 100 µM,> 100 µM,> 100 µM,> 100 µM,> 100 µM,> 100 µM,,,,,,,,,
OC1[C@@H]2[C@@H](O)CCCN2C[C@@H](O)[C@H]1O (stereo partly drawn),> 100 µM,> 100 µM,> 100 µM,> 100 µM,> 100 µM,> 100 µM,> 100 µM,> 100 µM,> 100 µM,> 100 µM,,,,,,,,,

SMILES,TGI (HS 578T breast),TGI (KM12 colon),TGI (T-47D breast),TGI (SK-MEL-2 melanoma),TGI (OVCAR-5 ovarian),TGI (U251 CNS),TGI (M14 melanoma),TGI (SK-MEL-5 melanoma),TGI (SR leukemia),TGI (UO-31 renal),GI50 (T-47D breast),GI50 (U251 CNS),GI50 (M14 melanoma),GI50 (SR leukemia),GI50 (HS 578T breast),GI50 (SK-MEL-2 melanoma),GI50 (OVCAR-5 ovarian),GI50 (SK-MEL-5 melanoma),GI50 (UO-31 renal)
CC(C)/C(Cl)=N/OC(=O)Nc1ccc(Br)cc1,58.4 µM,26.6 µM,9.95 µM,31.5 µM,28.6 µM,37.3 µM,8.33 µM,26.3 µM,4.5 µM,23.8 µM,,,,,,,,,
COc1cccc(N2C(=O)CSC2c2cccc(Oc3ccccc3)c2)c1 (stereo not drawn),41.4 µM,> 100 µM,> 100 µM,16.3 µM,> 100 µM,19.3 µM,51 µM,16.9 µM,17.6 µM,> 100 µM,,,,,,,,,
C/C(CC(O)(C(F)(F)F)C(F)(F)F)=N\NC(N)=O,> 10 µM,> 10 µM,> 10 µM,> 10 µM,,> 10 µM,> 10 µM,> 10 µM,> 10 µM,> 10 µM,,,,,,,,,
O=c1[nH]c(Nc2ccccc2)nc2c1ncn2CC(O)CSCCO (stereo not drawn),> 100 µM,> 100 µM,> 100 µM,> 100 µM,> 100 µM,> 100 µM,> 100 µM,> 100 µM,> 100 µM,,,,,,,,,,
CC(C)(C)c1ccc(OCCOc2ccc(C(C)(C)C)cc2N)c(N)c1,> 100 µM,> 100 µM,> 100 µM,> 100 µM,> 100 µM,> 100 µM,> 100 µM,> 100 µM,> 100 µM,> 100 µM,,,,,,,,,
COC(=O)C1(NC(=O)C(CC(=O)OCc2ccccc2)NC(=O)OCc2ccccc2)CCCCCC1 (stereo not drawn),> 100 µM,> 100 µM,> 100 µM,,> 100 µM,> 100 µM,> 100 µM,28.8 µM,87.4 µM,> 100 µM,,,,,,,,,
CC12CCC(CC(=O)/C1=C(/Br)I)C2(C)C (stereo not drawn),44 µM,32 µM,46.4 µM,30.3 µM,8.76 µM,,28.3 µM,23.6 µM,39 µM,32.1 µM,,,,,,,,,
O=C(/C=C(/C=C/c1ccc2[nH]ccc2c1)OB(F)F)/C=C/c1ccc2[nH]ccc2c1,> 100 µM,,> 100 µM,86.2 µM,> 100 µM,,,13.3 µM,> 100 µM,5.55 µM,1.99 µM,,,0.451 µM,3.96 µM,4.6 µM,2.75 µM,2.98 µM,1.35 µM
Fc1ccc(C(OCCN2CCN(CCCc3ccccc3)CC2)c2ccc(F)cc2)cc1,10.1 µM,17.1 µM,19.3 µM,12.2 µM,15.7 µM,14.3 µM,11.3 µM,10.1 µM,10 µM,12 µM,,,,,,,,,
CCc1n[nH]c(=O)n1CCCCCCCCCCCCn1c(CC)n[nH]c1=O,> 100 µM,> 100 µM,82.9 µM,> 100 µM,> 100 µM,86.4 µM,95.8 µM,32.8 µM,> 100 µM,> 100 µM,,,,,,,,,
COC1CC(N)(c2ccccc2)C(O)C(C)O1 (stereo not drawn),> 100 µM,,> 100 µM,> 100 µM,> 100 µM,> 100 µM,> 100 µM,> 100 µM,> 100 µM,> 100 µM,,,,,,,,,
CC(N=NNc1ccc(-c2nc3ccccc3[nH]2)cc1)C(=O)O (stereo not drawn),> 100 µM,> 100 µM,> 100 µM,> 100 µM,> 100 µM,60.8 µM,> 100 µM,> 100 µM,> 100 µM,> 100 µM,,,,,,,,,
COc1cc(C2c3c(ccc4ccccc34)C(=O)C3CCC(=O)N32)cc(OC)c1OC (stereo not drawn),> 50 µM,> 50 µM,> 50 µM,> 50 µM,> 50 µM,> 50 µM,> 50 µM,,> 50 µM,> 50 µM,,,,,,,,,
N#CN1C2CCC1CC(=O)C2,> 100 µM,> 100 µM,> 100 µM,> 100 µM,> 100 µM,> 100 µM,> 100 µM,> 100 µM,> 100 µM,> 100 µM,,,,,,,,,
Cc1ccc(C(=N)c2ccccc2Cc2cccc3ccccc23)c2ccccc12,> 100 µM,> 100 µM,> 100 µM,> 100 µM,> 100 µM,> 100 µM,> 100 µM,> 100 µM,> 100 µM,> 100 µM,,,,,,,,,
Cc1ccc2c(c1)-c1nc(N)c(C#N)c(-c3ccc(Cl)cc3)c1CCS2(=O)=O,> 100 µM,> 100 µM,> 100 µM,> 100 µM,,> 100 µM,,40.2 µM,65.6 µM,86.2 µM,,,,,,,,,

# From PubChem BioAssay (NCI)
